In patent US11219215B2, “Herbicidal composition comprising cinmethylin and specific inhibitors of protoporphyrinogen oxidase” (BASF Agro B.V., priority 2015, dated 2022):
Several values for one entry are separate records, joined by “and”; a condition that tells them apart may be missing. Identical values can stand only once.

Key:
Format in all cases: in vivo
[1] = system: Polygonum convolvulus; test: Greenhouse preemergence herbicidal activity, POLCO; details: 20 DAT
Method: (§1) The containers were irrigated gently to promote germination and growth and subsequently covered with transparent plastic hoods until the plants had rooted.
(§2) The plants have been cultivated due to their individual requirements at 10-25° C. and 20-35° C.
(§3) The plants were irrigated due to their necessity.
(§4) The racemic mixture (±)-2-exo-(2-Methylbenzyloxy)-1-methyl-4-isopropyl-7-oxabicyclo[2.2.1]heptane was used as herbicide A and formulated as emulsifiable concentrates with an active ingredient concentration of 50g/I, 100 g/I or 750 g/I respectively.
(§5) Flumioxazin (herbicide B.1) was used as a wettable powder (WP) formulation having an active ingredient concentration of 50%.
(§6) Sulfentrazone (herbicide B.2) was used as a suspension concentrate (SC) having an active ingredient concentration of 480 g/l.
(§7) In the following experiments, the herbicidal activity for the individual herbicidal compositions (solo and mixture applications) was assessed 20 days after treatment (DAT).
(§8) The evaluation for the damage on undesired weeds caused by the chemical compositions was carried out using a scale from 0 to 100%, compared to the untreated control plants. Here, 0 means no damage and 100 means complete destruction of the plants.
(§9) E=X+Y−(X·Y/100) where X=effect in percent using herbicide A at an application rate a; • Y=effect in percent using herbicide B at application rate b; • E=expected effect (in %) of herbicide A+herbicide B at application rates a+b.
(§10) The value E corresponds to the effect (plant damage or injury) which is to be expected if the activity of the individual compounds is additive. If the observed effect is higher than the value E calculated according to the Colby equation, a synergistic effect is present.

[2] = system: Avena fatua; test: Greenhouse preemergence herbicidal activity, AVEFA; details: 20 DAT
Method: as §1, §2, §3, §4, §5, §6
(§11) In the following experiments, the herbicidal activity for the individual herbicidal compositions (solo and mixture applications) was assessed 20 days after treatment (DAT). […]
as §10

[3] = system: Anthemis arvensis; test: Greenhouse preemergence herbicidal activity, ANTAR; details: 20 DAT
Method: as §1, §2, §3, §4, §5, §6, §7, §8, §9, §10

[4] = system: Sorghum halepense; test: Greenhouse preemergence herbicidal activity, SORHA; details: 20 DAT
Method: as §1, §2, §3, §4, §5, §6, §7, §8, §9, §10

[5] = system: Geranium dissectum; test: Greenhouse postemergence herbicidal activity, GERDI; details: herbicide A solo 62.5 g ai/ha, 20 DAT
Method: (§12) For the post emergence treatment, the plants were first grown to the 2 leaf station (GS 12). Here, the herbicidal compositions were suspended or emulsified in water as distribution medium and sprayed using finely distributing nozzles.
as §2, §3, §4, §5, §6, §11, §10

[6] = system: Setaria viridis; test: Greenhouse preemergence herbicidal activity, SETVI; details: 20 DAT
Method: as §1, §2, §3, §4, §5, §6, §7, §8, §9, §10

[7] = system: Lolium multiflorum; test: Greenhouse preemergence herbicidal activity, LOLMU; details: 20 DAT
Method: as §1, §2, §3, §4, §5, §6, §7, §8, §9, §10

[8] = system: Galium aparine; test: Greenhouse preemergence herbicidal activity, GALAP; details: 20 DAT
Method: as §1, §2, §3, §4, §5, §6, §7, §8, §9, §10

[9] = system: Abutilon theophrasti; test: Greenhouse preemergence herbicidal activity, ABUTH; details: 20 DAT
Method: as §1, §2, §3, §4, §5, §6, §7, §8, §9, §10

[10] = system: Stellaria media; test: Greenhouse preemergence herbicidal activity, STEME; details: 20 DAT
Method: as §1, §2, §3, §4, §5, §6, §7, §8, §9, §10

[11] = system: Chenopodium album; test: Greenhouse preemergence herbicidal activity, CHEAL; details: 20 DAT
Method: as §1, §2, §3, §4, §5, §6, §11, §10

[12] = system: Alopecurus myosuroides; test: Greenhouse preemergence herbicidal activity, ALOMY; details: 20 DAT
Method: as §1, §2, §3, §4, §5, §6, §7, §8, §9, §10

[13] = system: Geranium dissectum; test: Greenhouse preemergence herbicidal activity, GERDI; details: 20 DAT
Method: as §1, §2, §3, §4, §5, §6, §7, §8, §9, §10

[14] = system: Setaria viridis; test: Greenhouse postemergence herbicidal activity, SETVI; details: 20 DAT
Method: as §12, §2, §3, §4, §5, §6, §11, §10

[15] = system: Digitaria sanguinalis; test: Greenhouse postemergence herbicidal activity, DIGSA; details: 20 DAT
Method: as §12, §2, §3, §4, §5, §6, §7, §8, §9, §10

[16] = sulfentrazone solo 12.5 g ai/ha

## Cc1ccccc1CO[C@@H]1C[C@]2(C(C)C)CC[C@@]1(C)O2 (racemic) [herbicide A, (±)-2-exo-(2-Methylbenzyloxy)-1-methyl-4-isopropyl-7-oxabicyclo[2.2.1]heptane]
[1]; herbicide A solo 25 g ai/ha
  herbicidal activity: 0%
[1]; herbicide A solo 50 g ai/ha
  herbicidal activity: 0%
[1]; herbicide A solo 62.5 g ai/ha
  herbicidal activity: 0%
[1]; herbicide A solo 250 g ai/ha
  herbicidal activity: 45%
[2]; herbicide A solo 62.5 g ai/ha
  herbicidal activity: 40%
[2]; herbicide A solo 250 g ai/ha
  herbicidal activity: 65%
[3]; herbicide A solo 25 g ai/ha
  herbicidal activity: 0%
[3]; herbicide A solo 31.25 g ai/ha
  herbicidal activity: 0%
[3]; herbicide A solo 62.5 g ai/ha
  herbicidal activity: 0%
[3]; herbicide A solo 125 g ai/ha
  herbicidal activity: 20%
[4]; herbicide A solo 25 g ai/ha
  herbicidal activity: 90%
[4]; herbicide A solo 62.5 g ai/ha
  herbicidal activity: 90%
[4]; herbicide A solo 125 g ai/ha
  herbicidal activity: 95%
[4]; herbicide A solo 250 g ai/ha
  herbicidal activity: 98%
[5]
  herbicidal activity: 75%
[6]; herbicide A solo 25 g ai/ha
  herbicidal activity: 75%
[6]; herbicide A solo 31.25 g ai/ha
  herbicidal activity: 95%
[7]; herbicide A solo 25 g ai/ha
  herbicidal activity: 50%
[7]; herbicide A solo 31.25 g ai/ha
  herbicidal activity: 75%
[7]; herbicide A solo 62.5 g ai/ha
  herbicidal activity: 85% and 90%
[7]; herbicide A solo 125 g ai/ha
  herbicidal activity: 90%
[7]; herbicide A solo 500 g ai/ha
  herbicidal activity: 95%
[8]; herbicide A solo 31.25 g ai/ha
  herbicidal activity: 30%
[8]; herbicide A solo 62.5 g ai/ha
  herbicidal activity: 0%
[8]; herbicide A solo 125 g ai/ha
  herbicidal activity: 0%
[8]; herbicide A solo 200 g ai/ha
  herbicidal activity: 30%
[8]; herbicide A solo 500 g ai/ha
  herbicidal activity: 70%
[9]; herbicide A solo 50 g ai/ha
  herbicidal activity: 0%
[9]; herbicide A solo 100 g ai/ha
  herbicidal activity: 0%
[10]; herbicide A solo 25 g ai/ha
  herbicidal activity: 20%
[10]; herbicide A solo 50 g ai/ha
  herbicidal activity: 20%
[10]; herbicide A solo 62.5 g ai/ha
  herbicidal activity: 45%
[11]; herbicide A solo 62.5 g ai/ha
  herbicidal activity: 45%
[11]; herbicide A solo 125 g ai/ha
  herbicidal activity: 60%
[12]; herbicide A solo 31.25 g ai/ha
  herbicidal activity: 95%
[12]; herbicide A solo 62.5 g ai/ha
  herbicidal activity: 98%
[13]; herbicide A solo 50 g ai/ha
  herbicidal activity: 50%
[13]; herbicide A solo 62.5 g ai/ha
  herbicidal activity: 70% and 80%
[13]; herbicide A solo 100 g ai/ha
  herbicidal activity: 50%
[13]; herbicide A solo 125 g ai/ha
  herbicidal activity: 70%
[13]; herbicide A solo 250 g ai/ha
  herbicidal activity: 70%
[14]; herbicide A solo 62.5 g ai/ha
  herbicidal activity: 40%
[14]; herbicide A solo 125 g ai/ha
  herbicidal activity: 60%
[15]; herbicide A solo 62.5 g ai/ha
  herbicidal activity: 60%
[15]; herbicide A solo 125 g ai/ha
  herbicidal activity: 65%
[15]; herbicide A solo 250 g ai/ha
  herbicidal activity: 80%

## Cc1nn(-c2cc(NS(C)(=O)=O)c(Cl)cc2Cl)c(=O)n1C(F)F [sulfentrazone, 2′,4′-dichloro-5′-(4-difluoromethyl-4,5-dihydro-3-methyl-5-oxo-1H-1,2,4-triazol-1-yl)methanesulfonanilide]
[1]; [16]
  herbicidal activity: 20%
[1]; sulfentrazone solo 25 g ai/ha
  herbicidal activity: 90%
[3]; [16]
  herbicidal activity: 40%
[3]; sulfentrazone solo 25 g ai/ha
  herbicidal activity: 85%
[4]; [16]
  herbicidal activity: 0%
[4]; sulfentrazone solo 100 g ai/ha
  herbicidal activity: 80%
[6]; [16]
  herbicidal activity: 0%
[6]; sulfentrazone solo 25 g ai/ha
  herbicidal activity: 65%
[7]; [16]
  herbicidal activity: 0%
[7]; sulfentrazone solo 100 g ai/ha
  herbicidal activity: 80%
[8]; sulfentrazone solo 100 g ai/ha
  herbicidal activity: 98%
[9]; sulfentrazone solo 25 g ai/ha
  herbicidal activity: 65%
[9]; sulfentrazone solo 50 g ai/ha
  herbicidal activity: 65%
[10]; [16]
  herbicidal activity: 0%
[10]; sulfentrazone solo 25 g ai/ha
  herbicidal activity: 20%
[10]; sulfentrazone solo 50 g ai/ha
  herbicidal activity: 40%
[12]; sulfentrazone solo 25 g ai/ha
  herbicidal activity: 35%
[13]; sulfentrazone solo 25 g ai/ha
  herbicidal activity: 50%
